Assays:
[1] = system: collagenase; experiment: Inhibition of collagenase activity (azocol digestion, absorbance at 540 nm), Experiment 1; format: biochemical; conditions: Table 4; final concentration 0.02%, 10% ethanol solution
Procedure: The inhibition effects on collagenase activity of various substances including ursodesoxycholic acid and chenodesoxycholic acid as the effective components of the composition for enhancing oral hygiene according to the present invention were determined and compared according to the following method.
ursodesoxycholic aicd, chenodesoxycholic acid, fel tauri salt, bamboo salt, common salt, Machili cortex, Phellodendri cortex, Platycodi radix, Schizonepetae herba, Glycyrrhizae radix, Angelicae gigantis radix, Chamomillae flos, Myrrha, Theae folium, Taraxaci radix cum Herba, Lonicerae flos, Ciniicifugae rhizoma.
1 100 μl of 2% azocol solution was added to the test tube and then 190 μl of buffer solution (0.05M Tris-HCl, 1 mM CaCl2, pH 7.8) was added thereto.
2 To the resulting solution as prepared above was added to each test substance in the following concentration:
Ursodesoxycholic acid (10% ethanol solution) or chenodesoxycholic acid (10% ethanol solution) was added to the final concentration of 0.02%;
Fel tauri salt, bamboo salt or common salt was dissolved in the buffer solution as mentioned above and then added to the final concentration of 2.0%;
Machili cortex, Phellodendri cortex, Platycodi radix, Schizonepetae herba, Glycyrrhizae radix, Angelicae gigantis radix, Chamomillae flos, Myrrha, Theae folium, Taraxaci radix cum Herba, Lonicerae flos or Cimicifugae rhizoma was added in the form of 30% ethanol extract to the final concentration of 0.1%.
3 100 μl of collagenase having 100 ppm concentration was added and then the mixture was maintained in a 37° C. incubator for 18 hours. (Separately, the standard activity curve was prepared from 10, 100, 200 μl of collagenase.)
4 The test tubes were centrifuged for 5 minutes.
5 The supernatant was separated from the test tube and then added to the cell. The absorbance at 540 nm was measured by spectrophotometer and then the activity of the test group was determined from the standard activity curve.

[2] = system: Streptococcus mutans 10449, type C; experiment: Inhibition of plaque formation on glass bar by Streptococcus mutans, Experiment 2; format: cell-based; conditions: for plaque formation(%): 1440 min
Procedure: The inhibition effect of ursodesoxycholic acid, chenodesoxycholic acid and triclosan as the effective components of the composition for enhancing oral hygiene according to the present invention on plaque formation was determined and compared according to the following method.
Ursodesoxycholic acid, Chenodesoxycholic aicd, Triclosan.
1 Test strain, Streptococcus mutans 10449, type C was cultured in brain-heart infusion agar medium and then the cultured strain was inoculated on THB(Todd Hewitt Broth) and cultured at 37° C. for 15 hours.
2 The small glass bar was sterilized and then weighed.
3 This glass bar was introduced into the test tube in which the medium containing sucrose is included. The test substance was added at a given concentration to the test tube and then the test microorganism strain was added thereto. The test tube was cultured at 37° C. for 24 hours.
4 After incubation, the glass bar was carefully removed from the test tube and dried at 37° C. for one day. The final weight of the glass bar was measured. The control group was treated in the same manner as the test group except that the test substance is not added.
5 From the measured result, the plaque formation percentage was calculated according to the following equation: [formula]

[3] = system: plaque formation; experiment: Plaque index of test subjects using dentifrice of Table 1, Experiment 3; format: in vivo, human; conditions: in words; for effect on the plaque formation: dentifrice
Procedure: (§1) The effect of inhibiting plaque formation and gingivitis was tested using the dentifrice compositions of Examples 1 to 6 and Comparative Examples 1 to 4 described in Table 1 according to the following method. The results are described in the following Tables 7 and 8.
(§2) 1 The test subjects were selected and were given the explanation of oral medical examination.
(§3) 2 The test subjects were divided such that the group for each composition of examples and comparative examples includes 10 subjects, and then had the education of correct brushing method. The test subject were subjected to the oral medical examination to measure the plaque index (Quigley-Hein Index modified by Turesky) and the gingivitis index (Gingival Bleeding Index, Loe-Silness Index).
(§4) 3 Before the test, all the test subjects were subjected to teeth scaling.
(§5) 4 The placebo dentifrice(calcium monohydrogenphosphate 40%, glycerin 25%, sodium laurylsulfate 1.5%, sodium saccharin 0.1%, paraoxybenzoic acid ester 0.1%, sodium carboxymethylcellulose 1%, purified water added to 100%) was used for 2 weeks and then the oral medical exmamination was conducted again to measure the plaque index and the gingivitis index as the initial value.
(§6) 5 The test subjects were allowed to brush using the dentifrice of examples and comparative examples for 4 weeks, three times for one day, according to the same method as usual. The oral medical examination was conducted at the second and fourth weeks to determine the plaque index score and the gingivitis index score.
(§7) 6 The score obtained after 4 weeks was compared with the initial value and examined for the statistic significance using T-test.

[4] = system: gingivitis; experiment: Gingivitis index of test subjects using dentifrice of Table 1, Experiment 3; format: in vivo, human; conditions: for effect of alleviating gingivitis / effect on gingivitis in combination with bamboo salt, the extract of medicinal herbs, etc.: dentifrice, in words
Procedure: as §1, §2, §3, §4, §5, §6, §7

[5] = system: plaque formation; experiment: Plaque index of test subjects using oral rinse of Table 2, Experiment 4; format: in vivo, human; conditions: in words
Text: as §2, §3, §4, §5, §6
6 The score obtained after 4 weeks was compared with the initial value and examined for the statistic significance using T-test. […]

[6] = system: gingivitis; experiment: Gingivitis index of test subjects using oral rinse of Table 2, Experiment 4; format: in vivo, human; conditions: in words
Text: as §2, §3, §4, §5, §6, §7
The effect of inhibiting plaque formation and gingivitis was tested using the oral rinse compositions of Examples 7 to 12 and Comparative Examples 5 to 8 described in Table 2 according to the same method as Experiment 3. The results are described in the following Tables 9 and 10.

[7] = system: collagenase; experiment: Inhibition of collagenase activity (azocol digestion, absorbance at 540 nm), Experiment 1; format: biochemical; conditions: for Absorbance (540 nm) / Enzyme activity inhibition (%): Table 5; for activity for inactivating collagenase / inhibition effect at the concentration in excess of 0.6% / inhibition effect on collagenase activity in comparison with extracts of other medicinal herbs: in words

With `C[C@H](CCC(=O)O)[C@H]1CC[C@H]2[C@@H]3[C@H](O)C[C@@H]4C[C@H](O)CC[C@]4(C)[C@H]3CC[C@]12C` [Chenodesoxycholic acid, chenodesoxycholic acid] as the compound, how does the “Absorbance (540 nm)” value [1] read?
Its value is 0.260.

What about the “Enzyme activity inhibition (%)” value [1] of the same compound?
Its value is 39.23%.

And the pH ([2]; 0.100 (unit not given))?
Its pH is 4.2.

What about the “plaque formation(%)” value ([2]; 0.100 (unit not given)) of the same compound?
The value was 100.0%.

And the “effect on the plaque formation” value [3]?
Its value is “no significant effect on the plaque formation”.

And the “plaque effect in combination with the extract of other medicinal herbs” value [3]?
Its value is “do not show any synergistic and antagonistic effect”.

And the “effect of alleviating gingivitis” value [4]?
The value was “good effect of alleviating gingivitis”.

And the “effect on gingivitis in combination with bamboo salt, the extract of medicinal herbs, etc.” value [4]?
Its value is “synergistic alleviating effect on gingivitis”.

What about the “effect on the plaque formation” value [5] of the same compound?
The value was “no significant effect on the plaque formation”.

And the “alleviating effect for gingivitis” value [6]?
The value was “good alleviating effect for gingivitis”.

And the “effect on gingivitis in combination with bamboo salt, the extract of medicinal herbs, etc.” value [6]?
The value was “synergistic allevia- ting effect on gingivitis”.

What about the “concentration at which inhibition effect on collagenase begins” value [7] of the same compound?
The value was 0.01%.

What about the “concentration at which inhibition effect on collagenase reaches the maximum level” value [7] of the same compound?
Its value is 0.6%.

What about the “Absorbance (540 nm)” value ([7]; content 0.001%) of the same compound?
Its value is 0.324.

And the “Enzyme activity inhibition (%)” value ([7]; content 0.001%)?
The value was -1.20%.

What about the “Absorbance (540 nm)” value ([7]; content 0.010%) of the same compound?
Its value is 0.315.

What about the “Enzyme activity inhibition (%)” value ([7]; content 0.010%) of the same compound?
The value was 6.55%.

What about the “Absorbance (540 nm)” value ([7]; content 0.020%) of the same compound?
Its value is 0.260.

And the “Enzyme activity inhibition (%)” value ([7]; content 0.020%)?
The value was 39.23%.

And the “Absorbance (540 nm)” value ([7]; content 0.050%)?
The value was 0.230.

What about the “Enzyme activity inhibition (%)” value ([7]; content 0.050%) of the same compound?
The value was 52.15%.

What about the “Absorbance (540 nm)” value ([7]; content 0.100%) of the same compound?
The value was 0.180.

What about the “Enzyme activity inhibition (%)” value ([7]; content 0.100%) of the same compound?
The value was 67.87%.

What about the “Absorbance (540 nm)” value ([7]; content 0.150%) of the same compound?
The value was 0.052.

And the “Enzyme activity inhibition (%)” value ([7]; content 0.150%)?
The value was 88.41%.

And the “Absorbance (540 nm)” value ([7]; content 0.200%)?
The value was 0.007.

What about the “Enzyme activity inhibition (%)” value ([7]; content 0.200%) of the same compound?
The value was 91.91%.

What about the “Absorbance (540 nm)” value ([7]; content 0.600%) of the same compound?
Its value is 0.002.

And the “Enzyme activity inhibition (%)” value ([7]; content 0.600%)?
Its value is 92.22%.

What about the “Absorbance (540 nm)” value ([7]; content 1.000%) of the same compound?
The value was 0.002.

And the “Enzyme activity inhibition (%)” value ([7]; content 1.000%)?
The value was 92.22%.

And the “Absorbance (540 nm)” value ([7]; content 2.000%)?
The value was 0.002.

What about the “Enzyme activity inhibition (%)” value ([7]; content 2.000%) of the same compound?
The value was 92.22%.

What about the “activity for inactivating collagenase” value [7] of the same compound?
Its value is “good activity for inactivating collagenase”.

And the “inhibition effect at the concentration in excess of 0.6%” value [7]?
Its value is “not significantly increased”.

What about the “inhibition effect on collagenase activity in comparison with extracts of other medicinal herbs” value [7] of the same compound?
Its value is “superior inhibition effect on collagenase activity”.

Which results are given for `C[C@H](CCC(=O)O)[C@H]1CC[C@H]2[C@@H]3[C@@H](O)C[C@@H]4C[C@H](O)CC[C@]4(C)[C@H]3CC[C@]12C` [Ursodesoxycholic acid, ursodesoxycholic acid]?
Absorbance (540 nm) [1]: 0.243; Enzyme activity inhibition (%) [1]: 45.64%; pH ([2]; 0.100 (unit not given)): 4.2; plaque formation(%) ([2]; 0.100 (unit not given)): 100.0%; effect on the plaque formation [3]: no significant effect on the plaque formation; plaque effect in combination with the extract of other medicinal herbs [3]: do not show any synergistic and antagonistic effect; effect of alleviating gingivitis at the concentration in excess of 1.0 wt % ([4]; Comparative Example 2, in words): does not show any increase of the effect in proportion to the increase of the concentration; effect of alleviating gingivitis [4]: good effect of alleviating gingivitis; effect on gingivitis in combination with bamboo salt, the extract of medicinal herbs, etc. [4]: synergistic alleviating effect on gingivitis; concentration at which the effect of alleviating gingivitis begins ([4]; human, in vivo): 0.01 wt %; concentration with a significant effect in comparison with Comparative Example 4 ([4]; human, in vivo): ≥ 0.02 wt %; effect on the plaque formation [5]: no significant effect on the plaque formation; alleviating effect for gingivitis [6]: good alleviating effect for gingivitis; effect on gingivitis in combination with bamboo salt, the extract of medicinal herbs, etc. [6]: synergistic allevia- ting effect on gingivitis; concentration at which inhibition effect on collagenase begins [7]: 0.01%; concentration at which inhibition effect on collagenase reaches the maximum level [7]: 0.6%; Absorbance (540 nm) ([7]; content 0.001%): 0.326; Enzyme activity inhibition (%) ([7]; content 0.001%): -2.82%; Absorbance (540 nm) ([7]; content 0.010%): 0.305; Enzyme activity inhibition (%) ([7]; content 0.010%): 13.02%; Absorbance (540 nm) ([7]; content 0.020%): 0.243; Enzyme activity inhibition (%) ([7]; content 0.020%): 45.64%; Absorbance (540 nm) ([7]; content 0.050%): 0.215; Enzyme activity inhibition (%) ([7]; content 0.050%): 57.54%; Absorbance (540 nm) ([7]; content 0.100%): 0.166; Enzyme activity inhibition (%) ([7]; content 0.100%): 71.26%; Absorbance (540 nm) ([7]; content 0.150%): 0.050; Enzyme activity inhibition (%) ([7]; content 0.150%): 88.60%; Absorbance (540 nm) ([7]; content 0.200%): 0.005; Enzyme activity inhibition (%) ([7]; content 0.200%): 92.03%; Absorbance (540 nm) ([7]; content 0.600%): 0.002; Enzyme activity inhibition (%) ([7]; content 0.600%): 92.22%; Absorbance (540 nm) ([7]; content 1.000%): 0.000; Enzyme activity inhibition (%) ([7]; content 1.000%): 92.34%; Absorbance (540 nm) ([7]; content 2.000%): 0.000; Enzyme activity inhibition (%) ([7]; content 2.000%): 92.34%; activity for inactivating collagenase [7]: good activity for inactivating collagenase; inhibition effect at the concentration in excess of 0.6% [7]: not significantly increased; inhibition effect on collagenase activity in comparison with extracts of other medicinal herbs [7]: superior inhibition effect on collagenase activity

`Oc1cc(Cl)ccc1Oc1ccc(Cl)cc1Cl` [Triclosan, triclosan] was tested. Which pH ([2]; triclosan 0.0010) did it give?
The pH was 4.3.

And the “plaque formation(%)” value ([2]; triclosan 0.0010)?
The value was 100.0%.

What about the pH ([2]; triclosan 0.0050) of the same compound?
Its pH is 4.3.

What about the “plaque formation(%)” value ([2]; triclosan 0.0050) of the same compound?
Its value is 100.0%.

And the pH ([2]; triclosan 0.0100)?
The pH was 4.3.

What about the “plaque formation(%)” value ([2]; triclosan 0.0100) of the same compound?
Its value is 100.0%.

And the pH ([2]; triclosan 0.0300)?
The pH was 4.5.

And the “plaque formation(%)” value ([2]; triclosan 0.0300)?
Its value is 50.0%.

And the pH ([2]; triclosan 0.0500)?
The pH was 7.5.

And the “plaque formation(%)” value ([2]; triclosan 0.0500)?
Its value is 0.0%.
